The test system of the assay is L1210 leukemia ip in BDF1 mice, survival T/C. Briefly: NCI In Vivo Anticancer Drug Screen. Data for tumor model L1210 Leukemia (intraperitoneal) in B6D2F1 (BDF1) mice. The conditions noted are these: endpoint: mean survival time, higher = longer survival. An outline of the steps:
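Ratio derived from survival: compound-dosed mice over vehicle-dosed mice, all bearing a transplantable tumor.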

The mark [1] stands for this setting: dose: 100.0 mg/kg/injection, schedule: Q01DX009 (ip), vehicle: Klucel (hydroxypropylcellulose) (HPC).
The mark [2] stands for this setting: dose: 100.0 mg/kg/injection, schedule: Q04DX003 (ip), vehicle: saline with Tween-80.
Setting [3] is: dose: 200.0 mg/kg/injection, schedule: Q01DX009 (ip), vehicle: Klucel (hydroxypropylcellulose) (HPC).
The mark [4] stands for this setting: dose: 200.0 mg/kg/injection, schedule: Q04DX003 (ip), vehicle: saline with Tween-80.
Setting [5] is: dose: 50.0 mg/kg/injection, schedule: Q01DX001 (ip), vehicle: saline.
[6] abbreviates: dose: 100.0 mg/kg/injection, schedule: Q01DX001 (ip), vehicle: saline.
Setting [7] is: dose: 200.0 mg/kg/injection, schedule: Q01DX001 (ip), vehicle: saline.
Where [8] appears, read: dose: 100.0 mg/kg/injection, schedule: Q04DX002 (ip), vehicle: Klucel (hydroxypropylcellulose) (HPC).
Where [9] appears, read: dose: 200.0 mg/kg/injection, schedule: Q04DX002 (ip), vehicle: Klucel (hydroxypropylcellulose) (HPC).
[10] abbreviates: dose: 400.0 mg/kg/injection, schedule: Q04DX002 (ip), vehicle: Klucel (hydroxypropylcellulose) (HPC).
The mark [11] stands for this setting: dose: 50.0 mg/kg/injection, schedule: Q01DX001 (ip), vehicle: carboxymethylcellulose (CMC).
[12] abbreviates: dose: 100.0 mg/kg/injection, schedule: Q01DX001 (ip), vehicle: carboxymethylcellulose (CMC).
[13] abbreviates: dose: 200.0 mg/kg/injection, schedule: Q01DX001 (ip), vehicle: carboxymethylcellulose (CMC).

The structures appear in SMILES notation. Several values for one entry are separate records, joined by “and”; a condition that tells them apart may be missing. Identical values can stand only once. Inconclusive results and toxic doses are left out.

On to `Nc1nc(=S)c2[nH]c(N=Nc3ccc(S(=O)(=O)Nc4ncccn4)cc3)nc2[nH]1`, for which the T/C runs as follows: (dose: 19.0 mg/kg/injection, schedule: Q04DX003 (ip), vehicle: Klucel (hydroxypropylcellulose) (HPC)) 164 % of control; (dose: 29.0 mg/kg/injection, schedule: Q04DX003 (ip), vehicle: Klucel (hydroxypropylcellulose) (HPC)) 164 % of control; under setting [1], 96 % of control; under setting [2], 185 % of control; under setting [3], 97 % of control; under setting [4], 151 % of control.

For the compound `CCOP(=S)(S)OCC.[Ni]`, the T/C reads like this: under setting [5], 93 % of control; under setting [6], 102 % of control; under setting [7], 100 % of control.

As for `C[N+]1=C2CCCCCC2=C(N)CC1`, the T/C was 104 % of control (dose: 6.25 mg/kg/injection, schedule: Q01DX009 (ip), vehicle: saline); 100 % of control (dose: 12.5 mg/kg/injection, schedule: Q01DX009 (ip), vehicle: saline); 100 % of control (dose: 25.0 mg/kg/injection, schedule: Q01DX009 (ip), vehicle: saline).

Turning to `Cc1ccc(CNC(=O)Nc2c(C)cccc2C)cc1C`, the T/C under setting [8] is 102 % of control, the T/C under setting [9] was 108 % of control and the T/C under setting [10] is 97 % of control.

Turning to `O=C1C(Br)=C(C2CCCCC2)C(=O)c2ccccc21`, the T/C by setting is: under setting [11], 97 % of control; under setting [12], 116 % of control; under setting [13], 103 % of control.

Take `COc1ccccc1N1C(=O)C2C(C1=O)C1(Cl)C(Cl)=C(Cl)C2(Cl)C1(Cl)Cl` (configuration not stated): the T/C runs as follows: (dose: 50.0 mg/kg/injection, schedule: Q01DX009 (ip), vehicle: Klucel (hydroxypropylcellulose) (HPC)) 101 % of control; under setting [1], 95 % of control; (dose: 100.0 mg/kg/injection, schedule: Q04DX003 (ip), vehicle: Klucel (hydroxypropylcellulose) (HPC)) 103 % of control; under setting [3], 101 % of control and 92 % of control; (dose: 200.0 mg/kg/injection, schedule: Q04DX003 (ip), vehicle: Klucel (hydroxypropylcellulose) (HPC)) 109 % of control.

Turning to `Nc1cc(C(=O)Nc2ccc(C3=NCCN3)cc2)cc(C(=O)Nc2ccc(C3=NCCN3)cc2)c1`, the T/C was 113 % of control (dose: 4.0 mg/kg/injection, schedule: Q01DX Z (ip), vehicle: saline); 95 % of control (dose: 8.0 mg/kg/injection, schedule: Q01DX004 (im), vehicle: olive oil, sesame oil, peanut oil); 107 % of control (dose: 8.0 mg/kg/injection, schedule: Q01DX Z (ip), vehicle: saline); 95 % of control (dose: 16.0 mg/kg/injection, schedule: Q01DX004 (im), vehicle: olive oil, sesame oil, peanut oil); 123 % of control (dose: 16.0 mg/kg/injection, schedule: Q01DX Z (ip), vehicle: saline); 168 % of control (dose: 31.0 mg/kg/injection, schedule: Q01DX Z (ip), vehicle: carboxymethylcellulose (CMC)). In addition, the T/C (dose: 32.0 mg/kg/injection, schedule: Q01DX004 (im), vehicle: olive oil, sesame oil, peanut oil) was 109 % of control; the T/C (dose: 32.0 mg/kg/injection, schedule: Q01DX010 (sc), vehicle: saline) is 159 % of control; the T/C (dose: 62.0 mg/kg/injection, schedule: Q01DX Z (ip), vehicle: carboxymethylcellulose (CMC)) was 197 % of control; the T/C (dose: 62.5 mg/kg/injection, schedule: Q01DX010 (oral), vehicle: saline) was 115 % of control; the T/C (dose: 64.0 mg/kg/injection, schedule: Q01DX004 (im), vehicle: olive oil, sesame oil, peanut oil) is 114 % of control; the T/C (dose: 64.0 mg/kg/injection, schedule: Q01DX010 (sc), vehicle: saline) is 179 % of control. Further, the T/C (dose: 64.0 mg/kg/injection, schedule: Q01DX Z (ip), vehicle: saline) was 249 % of control; the T/C (dose: 125.0 mg/kg/injection, schedule: Q01DX010 (oral), vehicle: saline) is 87 % of control; the T/C (dose: 125.0 mg/kg/injection, schedule: Q01DX Z (ip), vehicle: carboxymethylcellulose (CMC)) is 155 % of control; the T/C (dose: 128.0 mg/kg/injection, schedule: Q01DX010 (sc), vehicle: saline) was 186 % of control; the T/C (dose: 128.0 mg/kg/injection, schedule: Q01DX Z (ip), vehicle: saline) was 212 % of control; the T/C (dose: 250.0 mg/kg/injection, schedule: Q01DX010 (oral), vehicle: saline) is 88 % of control. Further, the T/C is, setting by setting: (dose: 250.0 mg/kg/injection, schedule: Q01DX Z (ip), vehicle: carboxymethylcellulose (CMC)) 117 % of control; (dose: 500.0 mg/kg/injection, schedule: Q01DX010 (oral), vehicle: saline) 117 % of control; (dose: 1000.0 mg/kg/injection, schedule: Q01DX010 (oral), vehicle: saline) 115 % of control.

Consider `N#CC(SC(=N)N)c1ccccc1` (configuration not stated), for which the T/C was 103 % of control under setting [6] and 96 % of control under setting [7].

Turning to `OCC1CC(n2cnc3c(=S)nc[nH]c32)C(O)C1O` (configuration not stated), the T/C runs as follows: under setting [5], 96 % of control; under setting [6], 96 % of control; under setting [7], 96 % of control.

`NC(=S)N/N=C/c1ccccc1O`: the T/C is, setting by setting: under setting [11], 96 % of control; under setting [12], 104 % of control; (dose: 100.0 mg/kg/injection, schedule: Q04DX002 (ip), vehicle: saline with Tween-80) 90 % of control; under setting [13], 91 % of control; (dose: 200.0 mg/kg/injection, schedule: Q04DX002 (ip), vehicle: saline with Tween-80) 104 % of control; (dose: 400.0 mg/kg/injection, schedule: Q01DX001 (ip), vehicle: carboxymethylcellulose (CMC)) 91 % of control. Besides, the T/C (dose: 400.0 mg/kg/injection, schedule: Q04DX002 (ip), vehicle: saline with Tween-80) is 93 % of control.

With `Nc1nc(N)c2nc(CNc3ccc(C(=O)NCC(=O)O)cc3)cnc2n1`, the T/C is 93 % of control (dose: 5.0 mg/kg/injection, schedule: Q01DX009 (ip), vehicle: Klucel (hydroxypropylcellulose) (HPC)); 101 % of control (dose: 10.0 mg/kg/injection, schedule: Q01DX009 (ip), vehicle: Klucel (hydroxypropylcellulose) (HPC)); 109 % of control (dose: 20.0 mg/kg/injection, schedule: Q01DX009 (ip), vehicle: Klucel (hydroxypropylcellulose) (HPC)); 105 % of control (dose: 40.0 mg/kg/injection, schedule: Q01DX009 (ip), vehicle: Klucel (hydroxypropylcellulose) (HPC)).

In the case of `Cc1cncc(=O)[nH]1`, the T/C is, setting by setting: (dose: 100.0 mg/kg/injection, schedule: Q01DX001 (ip), vehicle: saline with Tween-80) 98 % of control; (dose: 100.0 mg/kg/injection, schedule: Q01DX009 (ip), vehicle: saline with Tween-80) 96 % of control; under setting [2], 104 % of control; (dose: 200.0 mg/kg/injection, schedule: Q01DX001 (ip), vehicle: saline with Tween-80) 98 % of control; (dose: 200.0 mg/kg/injection, schedule: Q01DX009 (ip), vehicle: saline with Tween-80) 100 % of control; under setting [4], 111 % of control. For the same compound, the T/C was 102 % of control (dose: 400.0 mg/kg/injection, schedule: Q01DX001 (ip), vehicle: saline with Tween-80); 91 % of control (dose: 400.0 mg/kg/injection, schedule: Q01DX009 (ip), vehicle: saline with Tween-80); 98 % of control (dose: 400.0 mg/kg/injection, schedule: Q04DX003 (ip), vehicle: saline with Tween-80).

`Cc1ccnc(NC(=O)Nc2ccc(C)cc2[N+](=O)[O-])c1`: the T/C reads like this: under setting [8], 99 % of control; under setting [9], 105 % of control; under setting [10], 115 % of control.

The values are drawn from PubChem BioAssay AID248 (DTP/NCI, 2004).
